≈ marks a conversion by molar mass, not a printed value.
Experiments:
[1] = tested on: A549; assay: Cytotoxicity, resazurin staining assay; assay type: cell-based, human; conditions: 24 h incubation
How it was run: (§1)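 A549 and HEp-2 cells (1 × 10^4/well) attached for 24 h before compound addition; HL-60 seeded directly with compounds; 0.25% DMSO final, 24 h exposure. Adherent cells then washed and given 20 μM resazurin for 2 h; HL-60 received resazurin directly for 4 h; fluorescence read-out, 1% Triton X-100 as positive control.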

[2] = tested on: HEp-2; assay: Cytotoxicity, resazurin staining assay; assay type: cell-based, human; conditions: 24 h incubation
How it was run: as §1

[3] = tested on: HL-60; assay: Cytotoxicity, resazurin staining assay; assay type: cell-based, human; conditions: 24 h incubation
How it was run: as §1

[4] = tested on: C. violaceum ATCC 31532 (wild type); assay: Quorum sensing inhibition assay (violacein) with parallel resazurin viability; assay type: cell-based, Chromobacterium violaceum; conditions: wild-type strain
Protocol: (§2) The QS inhibitory activity of the compounds was assessed as described previously.[31],[47] Briefly, two QS reporter strains, C. violaceum ATCC 31532 and the violacein-negative, mini-Tn5 mutant of C. violaceum CV026 (NCTC 13278), were grown on LBA (for CV026, the agar was supplemented with kanamycin at 100 μg mL^–1) overnight at 27 °C. Colonies were suspended in PDYT (0.5% peptone, 0.3% D-glucose, 0.25% yeast extract, 0.05% L-tryptophan, w/v) to reach an OD600 of 0.02. The CV026 culture was supplemented with C6-HSL (N-hexanoyl-L-homoserine lactone) (10007896, Cayman Chemical, MI) at 0.5 μM to induce the QS-moderated synthesis of violacein. For each strain, 200 μL of bacterial culture was added per well in two identical 96-well plates containing the compounds (2 μL per well for a final DMSO concentration of 1%). In each 96-well plate, untreated cells were used as negative controls and quercetin (Q4951, Sigma-Aldrich) and azithromycin (PZ0007, Sigma-Aldrich) were included as positive controls for QS inhibition and cell viability (bactericidal activity), respectively. The plates were incubated at 27 °C under aerobic conditions (200 rpm) for 22 h.
(§3) The synthesized and nonsoluble violacein was collected from the first 96-well plate by centrifugation (4000 rpm, for 15 min, 20 °C), and the supernatants were removed. Violacein was dissolved in 100 μL per well of 96% (v/v) ethanol and was separated from cells by centrifugation as described above. The supernatant containing violacein was then transferred to a new 96-well plate, and the absorbance was measured at 595 nm using a Multiskan Sky Microplate spectrophotometer. To detect any bactericidal effects, the viability of the cells was measured in the second replica plate by adding 10 μL of 400 μM resazurin in each well and incubating the plate for 30 min in the dark at 27 °C (220 rpm). After centrifugation of the plate to separate the cells from the solution, 100 μL of each well were transferred into a new 96-well plate and the fluorescence was recorded as described above using the Varioskan LUX multimode plate reader.

[5] = tested on: C. violaceum CV026 (AHL-deficient mutant); assay: as above; assay type: cell-based, Chromobacterium violaceum; conditions: mutant strain
Protocol: as §2, §3

[6] = Solubility in DMSO; assay type: physicochemical
[7] = tested on: S. aureus ATCC 25923; assay: S. aureus attachment on LDPE tubes, alone or in coculture with differentiated HL-60 cells; assay type: cell-based, Staphylococcus aureus; conditions: 25 μM, 24 h
Protocol: The coculture system was as previously described.[40] Briefly, the bacteria were prepared as described above and the concentration was adjusted to 2 × 10^7 CFU mL^–1 in RPMI 1640. The media of the differentiated HL-60 cells was refreshed with RPMI 1640 24 h before the experiments to remove possible traces of antibiotics. On the day of the experiment, the cells were counted and adjusted to a concentration of 2 × 10^5 cells mL^–1 in RPMI 1640. Each suspension (bacterial and differentiated HL-60 cells, 500 μL of each) was added on 1-cm-long sections of a sterilized fine bore LDPE tubing (Smiths Medical ASD, Minneapolis, MN) in 24-well plates (Nunclon Δ surface, Nunc, Roskilde, Denmark). Fingolimod was also added to the wells at a concentration of 25 μM (0.25% DMSO). Coculture controls with no added compound were included, as well as bacterial controls without differentiated HL-60 cells with and without fingolimod. The plates were incubated for 24 h in the same conditions as for cell maintenance. Then, the LDPE tubes were gently washed with TSB to remove adhering planktonic cells and transferred to Eppendorf tubes containing 1 mL of 0.5% (w/v) Tween 20-TSB solution. Next, the tubes were sonicated in a water bath sonicator (Branson Ultrasonics, Danbury, CT) for 5 min at 35 kHz. The tubes were vortexed for 20 s prior to and after the sonication step. […]

[8] = tested on: S. aureus ATCC 25923; set-up: method as in PMID 33233348; conditions: previously found; cited from earlier work
[9] = tested on: A. baumannii NCTC 13423; set-up: method as in PMID 33233348; conditions: previously reported; cited from earlier work

2-Amino-2-(4-decylbenzyl)propane-1,3-diol [Compound 45]
CC50 [1]: 27.4 ± 15.1 µM
CC50 [2]: > 40 µM
CC50 [3]: 3.2 ± 1 µM

CCCCCCCCCCc1ccc(CCC(N)(CO)CO)nc1 [Compound 62, 2-Amino-2-[2-(5-decylpyridin-2-yl)ethyl]propane-1,3-diol]
QSI activity compared with fingolimod [4]: significantly worse than fingolimod

CCCCCCCCc1ccc2cc(CC(N)(CO)CO)ccc2c1 [Compound 79, 2-Amino-2-[(6-octylnaphthalen-2-yl)methyl]propane-1,3-diol]
QSI activity compared with fingolimod [4]: significantly lower QSI activity than fingolimod
QSI activity compared with fingolimod [5]: significantly lower QSI activity than fingolimod

CCCCCCCCCCc1ccc2nc(CCC(N)(CO)CO)ccc2c1 [Compound 81, 2-Amino-2-[2-(6-decylquinolin-2-yl)ethyl]propane-1,3-diol]
Solubility in dimethyl sulfoxide (DMSO) [6]: not fully soluble

CCCCCCCCc1ccc2ccc(CC(N)(CO)CO)nc2c1 [Compound 82, 2-Amino-2-[(7-octylquinolin-2-yl)methyl]propane-1,3-diol]
QSI activity compared with fingolimod [5]: significantly better QSI activity

CCCCCCCCc1ccc(CCC(N)(CO)CO)cc1 [fingolimod, Fingolimod]
Bacterial attachment on LDPE tubes ([7]; in combination with HL-60 cells, vs coculture control (p = 0.042)): significant reduction
Numbers of attached viable S. aureus on LDPE tubes ([7]; in the absence of HL-60 cells, vs monoculture control (p = 0.013)): significantly reduced
Solubility in dimethyl sulfoxide (DMSO) [6]: not fully soluble
MIC in pre-exposure, S. aureus [8]: 15 µM (≈ 4.61 µg/mL)
MIC A. baumannii [9]: 25 µM (≈ 7.69 µg/mL)

Source: paper PMC8296573, “Synthesis and Biological Evaluation of Fingolimod Derivatives as Antibacterial Agents” (ACS Omega, 2021)
